Data reported in patent US20170143712A1, “Methods of Treating Cancers, Immune and Autoimmune Diseases, and Inflammatory Diseases Based on BTK Occupancy and BTK Resynthesis Rate” (Acerta Pharma B.V., priority 2014, published 2017).

System: systemic lupus erythematosus (SLE) in MRL/MpJFASlpr mice
Test: MRL/MpJFASlpr mouse model of systemic lupus erythematosus
Assay type: in vivo
Details: for Histopathology Glomerulus Diameter / Histopathology Summed Score / Kidney (paired) Weight (g) / Change in Body Weight (g) wk 1-12 / Histopathology Interstitial Inflammation: mean (SE); for absolute kidney weights, reduction vs Vehicle Disease Controls / absolute mesenteric lymph node weights, reduction vs Vehicle Disease Controls: term animals
Procedure: A study designed to determine the effects of candidate anti-inflammatory agent Formula (II) in oral (PO), daily (QD) administration in the treatment of systemic lupus erythematosus (SLE) in MRL/MpJFASlpr mice. Formula (II) was preformulated in vehicle (0.4% HPMC, 0.1% Tween 80, with simethicone for antifoaming). The female MRL/MpJFASlpr mice were dosed with vehicle or Formula (II) (1, 5, or 25 mg/kg) daily (QD) by the oral (PO) route dosing, or they were dosed QD by the intraperitoneal (IP) route with the reference compound cyclophosphamide (15 mg/kg). Prior to dosing, the candidate anti-inflammatory agent was reconstituted either by vortexing or stirring. […]
Female MRL/MpJFASlpr mice (n=50) that were 8-9 weeks old and weighed approximately 28-41 grams (mean 34 g) at enrollment (mouse age approx. 12 weeks) were obtained from The Jackson Laboratory, Bar Harbor, Me. (stock number 000485). These mice were housed 3-5/cage in shoe-box polycarbonate cages with wire tops, wood chip bedding, and suspended food and water bottles. No concurrent medications were given.
When they were 12 weeks old (study day 0), the female MRL/MpJFASlpr mice (n=10/group) were randomized by body weight into 5 groups as shown above. Treatment was initiated after randomization and continued for […] (mouse age 12 weeks to 23 weeks).
Starting on study week one, and then every week thereafter urine from each animal was tested for proteinuria using the Clinitech Multistick test strip (Bayer). The animals were also observed daily for significant clinical signs, moribundity and mortality. […] Efficacy evaluation was based on animal body weights, proteinuria analysis, lymphadenopathy scores, skin lesion scores, organ weights, anti-dsDNA titers, clinical chemistry parameters, and histopathologic evaluation of the kidneys.
Any animals showing signs of morbundity were terminated immediately. At necropsy (3 h post-dose, mouse age 23 weeks), all remaining animals were anesthetized with Isoflurane and bled via cardiac puncture for serum and plasma (Li Heparin). The animals were bled to exsanguinate then euthanized by cervical dislocation. Spleens, kidneys (paired), and lymph nodes were collected and weighed. Kidneys were collected into 10% neutral buffered formalin (NBF). Spleens were placed in RPMI 1% FBS media for splenocyte isolation. Serum samples for potential clinical chemistry analysis were stored frozen at −80° C. until shipment to Antech Diagnostics. Plasma samples were stored frozen at −80° C. for mouse antidsDNA IgG analysis by ELISA.
Blood samples were drawn via cardiac puncture from Isoflurane anesthetized animals into serum separator microtainer tubes for clinical chemistries. Samples were shipped to Antech Diagnostics for analysis.

[1] = 1 mg/kg PO QD, term animals only
[2] = 5 mg/kg PO QD, term animals only
[3] = 25 mg/kg PO QD, term animals only

CC#CC(=O)N1CCC[C@H]1c1nc(-c2ccc(C(=O)Nc3ccccn3)cc2)c2c(N)nccn12 [Formula (II), (S)-4-(8-amino-3-(1-(but-2-ynoyl)pyrrolidin-2-yl)imidazo[1,5-a]pyrazin-1-yl)-N-(pyridin-2-yl)benzamide]
Percent Survival (1 mg/kg PO QD): 100%
Histopathology Glomerulus Diameter (1 mg/kg PO QD, All Animals): *87.78 (3.82)
Histopathology Summed Score (1 mg/kg PO QD, All Animals): 7.70 (1.07)
Kidney (paired) Weight (g) (1 mg/kg PO QD, All Animals): 0.576 (0.03) g
Change in Body Weight (g) wk 1-12 (1 mg/kg PO QD, Term Animals): 8.10 (0.66) g
Histopathology Glomerulus Diameter (1 mg/kg PO QD, Term Animals): 87.78 (3.82)
Histopathology Summed Score (1 mg/kg PO QD, Term Animals): 7.70 (1.07)
Kidney (paired) Weight (g) (1 mg/kg PO QD, Term Animals): 0.576 (0.03) g
glomerulus diameter, reduction vs Vehicle Disease Controls (1 mg/kg PO QD, all animals): 43%
percent of glomeruli with crescents, reduction (1 mg/kg PO QD, all animals): 97%
serum clinical chemistries vs Vehicle Disease Controls (1 mg/kg PO QD, all animals): significantly increased albumin (ALB), glucose (GLU), and sodium/potassium ratio (Na/K) and significantly reduced blood urea nitrogen (BUN), BUN/creatinine, phosphorus (P), potassium (K), cholesterol (CHOL), and amylase (AMY)
percent of glomeruli with crescents, reduction [1]: 90%
serum clinical chemistries vs Vehicle Disease Controls [1]: significantly reduced BUN and BUN/creatinine
Percent Survival (5 mg/kg PO QD): 90%
mice that died or were sacrificed moribund prior to study termination (5 mg/kg PO QD): 1 of 10
Histopathology Glomerulus Diameter (5 mg/kg PO QD, All Animals): *80.53 (5.64)
Histopathology Interstitial Inflammation (5 mg/kg PO QD, All Animals): 1.98 (0.29)
Histopathology Summed Score (5 mg/kg PO QD, All Animals): *5.60 (0.98)
Kidney (paired) Weight (g) (5 mg/kg PO QD, All Animals): 0.544 (0.02) g
Change in Body Weight (g) wk 1-12 (5 mg/kg PO QD, Term Animals): 7.01 (0.67) g
Histopathology Glomerulus Diameter (5 mg/kg PO QD, Term Animals): *80.17 (6.29)
Histopathology Interstitial Inflammation (5 mg/kg PO QD, Term Animals): 1.97 (0.33)
Histopathology Summed Score (5 mg/kg PO QD, Term Animals): *5.50 (1.08)
Kidney (paired) Weight (g) (5 mg/kg PO QD, Term Animals): *0.531 (0.02) g
glomerulus diameter, reduction (5 mg/kg PO QD, all animals): 60%
glomerulus score, reduction (5 mg/kg PO QD, all animals): 58%
percent of glomeruli with crescents, reduction (5 mg/kg PO QD, all animals): 99%
protein cast score, reduction (5 mg/kg PO QD, all animals): 92%
serum clinical chemistries vs Vehicle Disease Controls (5 mg/kg PO QD, all animals): significantly increased ALB, GLU, calcium (CA), and Na/K and significantly reduced BUN, BUN/creatinine, K, CHOL, and AMY
summed histopathology scores, reduction (5 mg/kg PO QD, all animals): 63%
vasculitis, reduction (5 mg/kg PO QD, all animals): 52%
absolute kidney weights, reduction vs Vehicle Disease Controls (5 mg/kg PO QD): 16%
absolute mesenteric lymph node weights, reduction vs Vehicle Disease Controls (5 mg/kg PO QD): 52%
glomerulus diameter, reduction [2]: 46%
percent of glomeruli with crescents, reduction [2]: 98%
protein cast score, reduction [2]: 90%
serum clinical chemistries vs Vehicle Disease Controls [2]: significantly increased ALB, albumin/globulin ratio (A/G), GLU and Na/K and significantly reduced BUN, BUN/creatinine, and K
summed histopathology scores, reduction [2]: 54%
Percent Survival (25 mg/kg PO QD): 100%
Histopathology Glomerulus Diameter (25 mg/kg PO QD, All Animals): *74.78 (1.62)
Histopathology Interstitial Inflammation (25 mg/kg PO QD, All Animals): *1.53 (0.15)
Histopathology Summed Score (25 mg/kg PO QD, All Animals): *3.88 (0.34)
Kidney (paired) Weight (g) (25 mg/kg PO QD, All Animals): 0.511 (0.01) g
Change in Body Weight (g) wk 1-12 (25 mg/kg PO QD, Term Animals): 6.90 (0.56) g
Histopathology Glomerulus Diameter (25 mg/kg PO QD, Term Animals): *74.78 (1.62)
Histopathology Interstitial Inflammation (25 mg/kg PO QD, Term Animals): *1.53 (0.15)
Histopathology Summed Score (25 mg/kg PO QD, Term Animals): *3.88 (0.34)
Kidney (paired) Weight (g) (25 mg/kg PO QD, Term Animals): *0.511 (0.01) g
glomerulus crescent score, reduction (25 mg/kg PO QD, all animals): 100%
glomerulus diameter, reduction (25 mg/kg PO QD, all animals): 73%
glomerulus score, reduction (25 mg/kg PO QD, all animals): 76%
interstitial inflammation, reduction (25 mg/kg PO QD, all animals): 59%
percent of glomeruli with crescents, reduction (25 mg/kg PO QD, all animals): 100%
protein cast score, reduction (25 mg/kg PO QD, all animals): 98%
serum clinical chemistries vs Vehicle Disease Controls (25 mg/kg PO QD, all animals): significantly increased ALB, GLU, calcium (CA), and Na/K and significantly reduced BUN, BUN/creatinine, K, CHOL, and AMY
summed histopathology scores, reduction (25 mg/kg PO QD, all animals): 75%
vasculitis, reduction (25 mg/kg PO QD, all animals): 52%
urine protein scores vs Vehicle Disease Controls (25 mg/kg PO QD, all animals, mouse age 14-15 and 21-22): significantly reduced
absolute kidney weights, reduction vs Vehicle Disease Controls (25 mg/kg PO QD): 19%
absolute mesenteric lymph node weights, reduction vs Vehicle Disease Controls (25 mg/kg PO QD): 49%
glomerulus crescent score, reduction [3]: 100%
glomerulus diameters, reduction [3]: 63%
glomerulus score, reduction [3]: 72%
interstitial inflammation, reduction [3]: 51%
percent of glomeruli with crescents, reduction [3]: 100%
protein cast score, reduction [3]: 97%
serum clinical chemistries vs Vehicle Disease Controls [3]: significantly increased ALB and CA and significantly reduced BUN and BUN/creatinine
summed histopathology scores, reduction [3]: 68%
vasculitis, reduction [3]: 47%
urine protein scores vs Vehicle Disease Controls (25 mg/kg PO QD, term animals only, mouse age 22): significantly reduced
anti-dsDNA IgG levels vs Vehicle Disease Controls (1, 5 or 25 mg/kg PO QD): not significantly affected
body weight change vs Vehicle Disease Controls (1, 5 or 25 mg/kg PO QD): did not differ significantly
cumulative lymph node weights vs Vehicle Disease Controls (1, 5 or 25 mg/kg PO QD): did not differ significantly
lymphadenopathy scores vs Vehicle Disease Controls (1, 5 or 25 mg/kg PO QD): not significantly affected
skin lesion scores vs Vehicle Disease Controls (1, 5 or 25 mg/kg PO QD): not significantly affected
spleen weights vs Vehicle Disease Controls (1, 5 or 25 mg/kg PO QD): did not differ significantly
